Measured values taken from publication PMC6996489 (Drug Design, Development and Therapy, 2020).

Experiments:
[1] = molecular target: T1, human recombinant monoamine oxidase B (MAO B) (Homo sapiens, UniProt P27338); assay type: biochemical; settings: MAO B vs MAO A
T1 sequence (P27338 1-520): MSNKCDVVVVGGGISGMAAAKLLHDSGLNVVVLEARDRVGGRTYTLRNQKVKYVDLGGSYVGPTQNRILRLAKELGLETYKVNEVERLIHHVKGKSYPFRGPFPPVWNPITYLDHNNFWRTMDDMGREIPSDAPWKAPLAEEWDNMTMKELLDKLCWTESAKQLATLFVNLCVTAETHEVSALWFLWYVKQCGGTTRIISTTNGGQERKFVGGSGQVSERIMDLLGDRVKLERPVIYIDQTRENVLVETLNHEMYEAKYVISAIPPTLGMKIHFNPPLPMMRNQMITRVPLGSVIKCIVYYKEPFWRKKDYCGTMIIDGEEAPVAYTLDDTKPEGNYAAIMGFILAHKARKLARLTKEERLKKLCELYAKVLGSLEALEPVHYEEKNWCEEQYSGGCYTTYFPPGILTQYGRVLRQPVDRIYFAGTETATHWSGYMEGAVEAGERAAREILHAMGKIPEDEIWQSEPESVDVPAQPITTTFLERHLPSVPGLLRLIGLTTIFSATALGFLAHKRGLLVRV

AChE = AChE (Homo sapiens, UniProt P22303); test: Acetylcholine esterase inhibition screening; assay type: biochemical; settings: concentration of 1 µm
MAO B = molecular target: T2, MAO B (Homo sapiens, UniProt P27338); settings: seven kynuramine concentrations, Lineweaver–Burk plots
T2 sequence (P27338 1-520): T1 sequence (P27338 1-520)

BuChE = BuChE (Homo sapiens, UniProt P06276); test: Butyrylcholine esterase inhibition screening; assay type: biochemical; settings: concentration of 1 µm
Sequence of BuChE (P06276 29-602): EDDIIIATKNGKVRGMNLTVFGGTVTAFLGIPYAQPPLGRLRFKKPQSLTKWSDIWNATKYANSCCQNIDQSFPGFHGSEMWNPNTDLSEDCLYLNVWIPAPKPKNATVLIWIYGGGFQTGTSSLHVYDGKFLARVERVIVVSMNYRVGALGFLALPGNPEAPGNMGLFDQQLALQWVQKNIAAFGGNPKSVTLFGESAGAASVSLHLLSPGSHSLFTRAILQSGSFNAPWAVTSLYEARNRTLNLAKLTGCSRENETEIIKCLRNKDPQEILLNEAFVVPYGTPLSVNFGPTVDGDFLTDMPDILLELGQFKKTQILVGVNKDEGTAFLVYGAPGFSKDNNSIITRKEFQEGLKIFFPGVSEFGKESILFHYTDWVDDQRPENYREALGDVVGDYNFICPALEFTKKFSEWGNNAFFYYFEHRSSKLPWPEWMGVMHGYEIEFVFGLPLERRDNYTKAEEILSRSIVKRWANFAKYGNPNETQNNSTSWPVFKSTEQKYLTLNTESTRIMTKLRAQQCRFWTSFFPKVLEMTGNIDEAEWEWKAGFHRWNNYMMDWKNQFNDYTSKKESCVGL

Sequence of AChE (P22303 32-614): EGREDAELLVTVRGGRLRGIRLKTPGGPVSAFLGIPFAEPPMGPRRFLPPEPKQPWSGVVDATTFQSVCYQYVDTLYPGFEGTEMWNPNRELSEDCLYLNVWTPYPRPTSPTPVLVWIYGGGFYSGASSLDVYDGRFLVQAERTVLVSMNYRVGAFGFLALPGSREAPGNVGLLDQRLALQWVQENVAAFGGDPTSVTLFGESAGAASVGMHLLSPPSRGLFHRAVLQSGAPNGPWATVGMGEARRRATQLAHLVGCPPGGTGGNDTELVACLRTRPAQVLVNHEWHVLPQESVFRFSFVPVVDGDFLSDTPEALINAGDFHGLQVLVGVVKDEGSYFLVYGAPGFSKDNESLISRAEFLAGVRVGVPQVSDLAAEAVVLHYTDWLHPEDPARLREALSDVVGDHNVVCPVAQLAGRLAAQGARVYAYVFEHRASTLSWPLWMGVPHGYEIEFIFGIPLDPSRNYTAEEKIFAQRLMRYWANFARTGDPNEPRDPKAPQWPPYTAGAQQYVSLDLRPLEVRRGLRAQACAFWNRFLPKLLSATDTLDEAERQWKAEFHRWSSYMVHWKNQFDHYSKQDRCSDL

Row | fold lower affinity towards MAO B than MAO A [1] | SMILES | inhibition of AChE at 1 µm (AChE) | Type of MAO B inhibition (MAO B) | inhibition of BuChE at 1 µm (BuChE)
1 | 8.3 fold | O=C(Nc1ccc([N+](=O)[O-])cc1[N+](=O)[O-])c1ccccc1 [Compound 7, N-(2,4-Dinitrophenyl)benzamide] |  |  | 
2 |  | O=C(Nc1ccc([N+](=O)[O-])cc1[N+](=O)[O-])c1ccc2c(c1)OCO2 [Compound 55, N-(2,4-Dinitrophenyl)benzo[d][1,3]dioxole-5-carboxamide] | 24±1.8% | competitive | 57±4.5%
